Measured values from patent US11752125B2, “Anti-neuroinflammatory and protective compounds in Achillea fragrantissima” (THE STATE OF ISRAEL MINISTRY OF AGRICULTURE & RURAL …, priority 2013, dated 2023).

How the values were obtained:
primary astrocytes = experiment: Protection of astrocytes from H2O2-induced cell death (LDH); type: cell-based, rat; conditions: LDH 20 h later
Procedure: Primary cultures of astrocytes were prepared from cerebral cortices of 1-2 day-old neonatal Wistar rats as described (Elmann et al., 2011b). Fourteen days old astrocytes were used in the experiments. The research was conducted in accordance with the NIH guide for the care and use of laboratory animals, and was approved by the Institutional Animal Care and Use Committee of The Volcani Center, Agricultural Research Organization (IL-135/07, approval date Apr. 11, 2007). All efforts were made to minimize animal suffering and to reduce the number of animals used.
Astrocytes were re-plated at 24-well poly-D-lysine-coated plastic plates at a density of 1×10^5/well, in DMEM w/o Phenol Red containing 2% FBS, 2 mM glutamine, 100 U/mL penicillin, and 100 μg/mL streptomycin. H2O2 in the presence or absence of TTF were added, and cell viability was determined using a commercial colorimetric assay (Roche Applied Science, Germany) according to the manufacturer's instructions. This assay is based on the measurement of lactate dehydrogenase (LDH) activity released from the cytosol of damaged cells into the incubation medium. The absorbance was measured at 492 nm in a plate reader. The percentage of cytotoxicity was calculated according to the following equation, where the “ATriton-x treated cells” is the maximum releasable LDH in the cells:
In order to characterize the ability of TTF to protect against H2O2-induced astrocytic cell death, inventors assessed changes in cell viability using a model in which oxidative stress was induced by the addition of H2O2 to cultures of primary astrocytes. The concentration of H2O2 used in experiments (175-200 μM) resembles the concentration reported in rat striatum under ischemic conditions (Hyslop et al., 1995). […] Following preincubation, H2O2 was added, and cytotoxicity was determined 20 h later using the LDH assay. […] It should be noted that at all concentrations tested, the cytotoxicity of this flavonoid by itself to astrocytes was very low (<11%) as was determined by the LDH method (FIG. 2C). […] The protective activity of TTF was also compared to that of memantine, which is used as a drug for the treatment of Alzheimer's disease.
1. Produce a primary culture of rat brain glial cells according to the method described in “Protective effects of the essential oil of salvia fruticosa and its constituents on astrocytic susceptibility to hydrogen peroxide-induced cell death”. 2009. A. Elmann, S. Mordechay, M. Rindner, O. Larkov, M. Elkabetz, U. Ravid. Journal of agricultural and food chemistry. 57(15):6636-41; 2. Separate astrocytes from other cell types in the culture according to the method described in “Protective effects of the essential oil of salvia fruticosa and its constituents on astrocytic susceptibility to hydrogen peroxide-induced cell death”. 2009. A. Elmann, S. Mordechay, M. Rindner, O. Larkov, M. Elkabetz, U. Ravid. Journal of agricultural and food chemistry. 57(15):6636-41; 3. Incubate the cultured astrocytes (37° C., 5% CO2) for 2 hours with freshly diluted TTF or AcA of the invention; 4. Add 175-200 micromolars of freshly diluted H2O2; 5. Incubate the culture for 20-24 hr (37° C., 5% CO2); 6. Measure cell cytotoxicity and viability by the colorimetric lactate dehydrogenase (LDH) assay (Roche Applied science) according to the manufacturer's instructions, and the crystal violet cell staining as follows: 7. Gently draw out medium from plate; 8. Transfer plate to a chemical hood; 9. Dispense 150 μl 5% formaldehyde (in PBS) to each well and incubate 15 min at RT; 10. Pour out formaldehyde to chemical waste and gently rinse under running tap water; 11. Remove excess water by tapping plate on a tissue paper; 12. Dispense 150 μl crystal violet solution (10 gr/liter, in water) to each well; 13. Incubate 15 min at RT (in the chemical hood); 14. Pour out crystal violet to chemical waste and gently rinse under running tap water until all residual dye is removed; 15. Tap plate on a tissue paper to remove remaining water; 16. […]

N2a neuronal cells = experiment: Aβ25-35-induced neuronal cell death (LDH, crystal violet); type: cell-based; conditions: Aβ25-35 25 μM, 20 hr; LDH and crystal violet
Procedure: Treat N2a neuronal cells with 25 micromolars of freshly diluted Aβ25-35 in the presence or absence of AcA or TTF.
N2a neuronal cells were treated with Aβ25-35 (25 μM) and TTF. Cytotoxicity (FIG. 10A) and viability (FIG. 10B) were obtained through LDH method and Crystal violet staining respectively and measured 20 hr later. The results are the mean±SEM of two different experiments (n=15).
N2a neuronal cells were treated with Aβ25-35 (25 μM) and achillolide A. Cytotoxicity (FIG. 27A) viability (FIG. 27B) and ROS levels (FIG. 27C) were measured 20 hr later. The results are the mean±SEM of two different experiments (n=16).

[1] = 1 μM (lowest concentration tested), compound added 2 h before H2O2
[2] = 8 μM compound added 2 h before H2O2

COc1cc(-c2oc3cc(OC)c(OC)c(O)c3c(=O)c2O)ccc1O [TTF, 3,5,4′-trihydroxy-6,7,3′-trimethoxyflavone]
protection against H2O2-induced cell death (primary astrocytes; [1]): 24% | protection against H2O2-induced cell death (primary astrocytes; [2]): 92% | effect on Aβ25-35-induced cytotoxicity (N2a neuronal cells): prevents the cytotoxic effect at nanomolar concentrations

C=C1CCC2=C(CO)C(=O)O[C@H]2/C=C(\C)[C@H](OC(C)=O)CC1=O [achillolide A]
protection of astrocytes from H2O2-induced cell death (primary astrocytes; H2O2 200 μM added 2 h after compound): protects | effect on Aβ25-35-induced cytotoxicity (N2a neuronal cells): prevents the cytotoxic effect at nanomolar concentrations

CC12CC3CC(C)(C1)CC(N)(C3)C2 [memantine, reference compound]
protection against H2O2-induced cell death (primary astrocytes; [1]): 48% | protection against H2O2-induced cell death (primary astrocytes; [2]): 58%

O=c1c(O)c(-c2ccc(O)c(O)c2)oc2cc(O)cc(O)c12 [quercetin, 3,3′,4′,5,7-Pentahydroxyflavone, reference compound]
protection against H2O2-induced cell death (primary astrocytes; 10 μM compound added 2 h before H2O2): 36%
